Assay results reported in PubChem BioAssay AID330 (DTP/NCI, 2004).
Several values for one entry are separate records, joined by “and”; a condition that tells them apart may be missing. Equal entries are not always repeated. Inconclusive results and toxic doses are left out. How the source made its calls: active means survival T/C of 150% or more; inactive means T/C below 125% in these data.

Test system: P388 leukemia ip, CD2F1 mice, survival T/C
Assay: NCI In Vivo Anticancer Drug Screen. Data for tumor model P388 Leukemia (intraperitoneal) in CD2F1 (CDF1) mice
Details: endpoint: median survival time, higher = longer survival
Summary of the method: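 Mice carrying the transplanted tumor received test compound or vehicle. Survival was recorded in each group, and the value is the treated-group measurement divided by that of the vehicle-treated control group.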

[1] = dose: 50.0 mg/kg/injection, schedule: Q01DX009 (ip), vehicle: saline
[2] = dose: 100.0 mg/kg/injection, schedule: Q01DX009 (ip), vehicle: saline
[3] = dose: 200.0 mg/kg/injection, schedule: Q01DX009 (ip), vehicle: saline
[4] = dose: 50.0 mg/kg/injection, schedule: Q01DX005 (ip), vehicle: Klucel (hydroxypropylcellulose) (HPC)
[5] = dose: 100.0 mg/kg/injection, schedule: Q01DX005 (ip), vehicle: Klucel (hydroxypropylcellulose) (HPC)
[6] = dose: 200.0 mg/kg/injection, schedule: Q01DX005 (ip), vehicle: Klucel (hydroxypropylcellulose) (HPC)
[7] = dose: 25.0 mg/kg/injection, schedule: Q01DX009 (ip), vehicle: water
[8] = dose: 100.0 mg/kg/injection, schedule: Q01DX001 (ip), vehicle: Klucel (hydroxypropylcellulose) (HPC)
[9] = dose: 200.0 mg/kg/injection, schedule: Q01DX001 (ip), vehicle: Klucel (hydroxypropylcellulose) (HPC)
[10] = dose: 400.0 mg/kg/injection, schedule: Q01DX001 (ip), vehicle: Klucel (hydroxypropylcellulose) (HPC)

Measured: T/C

NC(CS)C(=O)O.[Cl-].[Cl-].[Cl-].[Cl-].[Pt+2] (stereo not given)
inactive: dose: 12.5 mg/kg/injection, schedule: Q01DX009 (ip), vehicle: saline 104 % of control | dose: 25.0 mg/kg/injection, schedule: Q01DX009 (ip), vehicle: saline 95 % of control | [1] 95 % of control | [2] 99 % of control | [3] 95 % of control

CCOC(=O)CNC(=O)C(CSSCC(NC(=O)OCc1ccccc1)C(=O)O)NC(=O)OCc1ccccc1 (stereo not given)
inactive: [4] 97 % of control | [5] 97 % of control | [6] 99 % of control

O=C(O)/C(=C\c1c(Cl)[nH]c2ccccc12)NC(=O)c1ccccc1
inactive: dose: 100.0 mg/kg/injection, schedule: Q01DX001 (ip), vehicle: saline with Tween-80 103 % of control | dose: 200.0 mg/kg/injection, schedule: Q01DX001 (ip), vehicle: saline with Tween-80 99 % of control | dose: 400.0 mg/kg/injection, schedule: Q01DX001 (ip), vehicle: saline with Tween-80 98 % of control

CN(N=O)C(=O)NCCNC(=O)C1OC(n2ccc(=O)[nH]c2=O)C(O)C1O (stereo not given)
inactive: [2] 108 % of control

Nc1cc2[nH]ccc2c(=O)[nH]1
inactive: dose: 50.0 mg/kg/injection, schedule: Q01DX005 (ip), vehicle: saline 108 % of control | dose: 100.0 mg/kg/injection, schedule: Q01DX005 (ip), vehicle: saline 113 % of control | dose: 200.0 mg/kg/injection, schedule: Q01DX005 (ip), vehicle: saline 114 % of control

NC(=O)C1ONC(=O)C1N (stereo not given)
inactive: [7] 106 % of control | dose: 50.0 mg/kg/injection, schedule: Q01DX009 (ip), vehicle: water 103 % of control | dose: 100.0 mg/kg/injection, schedule: Q01DX001 (ip), vehicle: water 98 % of control | dose: 100.0 mg/kg/injection, schedule: Q01DX009 (ip), vehicle: water 104 % of control | dose: 100.0 mg/kg/injection, schedule: Q04DX003 (ip), vehicle: water 100 % of control | dose: 200.0 mg/kg/injection, schedule: Q01DX001 (ip), vehicle: water 100 % of control | dose: 200.0 mg/kg/injection, schedule: Q01DX009 (ip), vehicle: water 120 % of control | dose: 200.0 mg/kg/injection, schedule: Q04DX003 (ip), vehicle: water 101 % of control | dose: 400.0 mg/kg/injection, schedule: Q01DX001 (ip), vehicle: water 92 % of control | dose: 400.0 mg/kg/injection, schedule: Q04DX003 (ip), vehicle: water 101 % of control | dose: 600.0 mg/kg/injection, schedule: Q01DX001 (ip), vehicle: water 96 % of control

CCOC(=O)c1nc(C)n2cc([N+](=O)[O-])ccc12
inactive: dose: 2.0 mg/kg/injection, schedule: Q01DX009 (ip), vehicle: saline 86 % of control | dose: 4.0 mg/kg/injection, schedule: Q01DX009 (ip), vehicle: saline 91 % of control | dose: 8.0 mg/kg/injection, schedule: Q01DX009 (ip), vehicle: saline 88 % of control

N#CC1CCCC(c2ccccc2)(C2CCCCC2)C1=O (stereo not given)
inactive: [8] 99 % of control | [9] 97 % of control | [10] 103 % of control

CCCCC(CC)C(=O)N1CCOCC1 (stereo not given)
inactive: dose: 100.0 mg/kg/injection, schedule: Q04DX003 (ip), vehicle: saline with Tween-80 100 % of control | dose: 200.0 mg/kg/injection, schedule: Q04DX003 (ip), vehicle: saline with Tween-80 100 % of control | dose: 400.0 mg/kg/injection, schedule: Q04DX003 (ip), vehicle: saline with Tween-80 100 % of control

CCOC(=O)Cn1cc([N+](=O)[O-])sc1=NC(=O)c1ccco1
inactive: [8] 90 % of control | [9] 98 % of control | [10] 97 % of control

CN(C)CC(CN(C)C)C(=O)/C=C/c1ccc(OCc2ccccc2)cc1
inactive: dose: 6.25 mg/kg/injection, schedule: Q01DX005 (ip), vehicle: saline 104 % of control | dose: 12.5 mg/kg/injection, schedule: Q01DX005 (ip), vehicle: saline 97 % of control

O=C(Nc1ccc(NC2=NCCN2)cc1)c1cc(Cl)cc(C(=O)Nc2ccc(NC3=NCCN3)cc2)c1
inactive: dose: 12.5 mg/kg/injection, schedule: Q01DX005 (ip), vehicle: Klucel (hydroxypropylcellulose) (HPC) 98 % of control | dose: 25.0 mg/kg/injection, schedule: Q01DX005 (ip), vehicle: Klucel (hydroxypropylcellulose) (HPC) 102 % of control

COc1ccccc1-n1c(C)nc2[nH]ncc2c1=O
inactive: [4] 101 % of control | [5] 97 % of control | [6] 96 % of control

Oc1c2ccccc2c(O)c2nc3ccccc3nc12
inactive: [1] 100 % of control | [2] 99 % of control | [3] 100 % of control

CCc1nc(N)nc(N)c1-c1ccc(Cl)c(Cl)c1.[Cl][Pd][Cl]
inactive: dose: 12.5 mg/kg/injection, schedule: Q04DX003 (ip), vehicle: saline with Tween-80 95 % of control

CCC(=O)OC1C2(O)C(OC(=O)C(C)C)C3(C)CC24OC2(C)OC15C1CC(=O)OC(c6ccoc6)C1(C)CCC5(O2)C4(C)C3CC(=O)OC (stereo not given)
inactive: dose: 0.37 mg/kg/injection, schedule: Q01DX009 (ip), vehicle: Klucel (hydroxypropylcellulose) (HPC) 108 % of control | dose: 0.75 mg/kg/injection, schedule: Q01DX009 (ip), vehicle: Klucel (hydroxypropylcellulose) (HPC) 101 % of control | dose: 1.5 mg/kg/injection, schedule: Q01DX009 (ip), vehicle: Klucel (hydroxypropylcellulose) (HPC) 102 % of control | dose: 3.0 mg/kg/injection, schedule: Q01DX009 (ip), vehicle: Klucel (hydroxypropylcellulose) (HPC) 96 % of control

c1cc(OCCOc2cccc3ocnc23)c2ncoc2c1
inactive: dose: 60.0 mg/kg/injection, schedule: Q01DX005 (ip), vehicle: saline with Tween-80 98 % of control and 92 % of control | dose: 120.0 mg/kg/injection, schedule: Q01DX005 (ip), vehicle: saline with Tween-80 99 % of control | dose: 240.0 mg/kg/injection, schedule: Q01DX005 (ip), vehicle: saline with Tween-80 86 % of control and 89 % of control

O=C(CBr)N(O)c1ccccc1OCc1ccccc1
inactive: dose: 6.25 mg/kg/injection, schedule: Q01DX001 (ip), vehicle: saline 116 % of control | dose: 12.5 mg/kg/injection, schedule: Q01DX001 (ip), vehicle: saline 98 % of control | dose: 25.0 mg/kg/injection, schedule: Q01DX001 (ip), vehicle: saline 104 % of control

COc1ccc2nc3cc(Cl)ccc3c(NCCCN3CCCC3)c2n1
inactive: dose: 12.5 mg/kg/injection, schedule: Q01DX009 (ip), vehicle: water 102 % of control | [7] 102 % of control

O=C(Nc1ccccc1)OCc1ccc(OCc2ccccc2)cc1
inactive: dose: 25.0 mg/kg/injection, schedule: Q01DX009 (ip), vehicle: saline with Tween-80 107 % of control and 94 % of control | dose: 50.0 mg/kg/injection, schedule: Q01DX009 (ip), vehicle: saline with Tween-80 110 % of control and 95 % of control | dose: 100.0 mg/kg/injection, schedule: Q01DX009 (ip), vehicle: saline with Tween-80 104 % of control and 89 % of control | dose: 200.0 mg/kg/injection, schedule: Q01DX009 (ip), vehicle: saline with Tween-80 95 % of control

O=C(O)C(CS)NCCNC(CS)C(=O)O (stereo not given)
inactive: dose: 12.5 mg/kg/injection, schedule: Q01DX001 (ip), vehicle: Klucel (hydroxypropylcellulose) (HPC) 97 % of control | dose: 25.0 mg/kg/injection, schedule: Q01DX001 (ip), vehicle: Klucel (hydroxypropylcellulose) (HPC) 97 % of control

CN1N=C(c2ccccc2)N=P12N=C(c1ccccc1)NN2C (stereo not given)
inactive: dose: 60.0 mg/kg/injection, schedule: Q01DX005 (ip), vehicle: saline 94 % of control | dose: 120.0 mg/kg/injection, schedule: Q01DX005 (ip), vehicle: saline 102 % of control | dose: 240.0 mg/kg/injection, schedule: Q01DX005 (ip), vehicle: saline 103 % of control
